Assay results published in paper PMC13195121, “A plasmid toolbox for the easy autodisplay of recombinant proteins and its optimization” (Communications Biology, 2026).
Where a name gives a salt, the structure may show the parent alone.

Key:
[1] = target: T1, β-Gluc (β-glucosidase BglA LYTH) (Caldicellulosiruptor saccharolyticus, UniProt P10482); assay: whole-cell absorbance assay at […] nm, surface-displaying E. coli; format: cell-based; conditions: 5 mM pNPG; 0.1 M Na-citrate pH 6; 55 °C
T1 construct: His6 tag and fXa site
T1 sequence (P10482 whole entry): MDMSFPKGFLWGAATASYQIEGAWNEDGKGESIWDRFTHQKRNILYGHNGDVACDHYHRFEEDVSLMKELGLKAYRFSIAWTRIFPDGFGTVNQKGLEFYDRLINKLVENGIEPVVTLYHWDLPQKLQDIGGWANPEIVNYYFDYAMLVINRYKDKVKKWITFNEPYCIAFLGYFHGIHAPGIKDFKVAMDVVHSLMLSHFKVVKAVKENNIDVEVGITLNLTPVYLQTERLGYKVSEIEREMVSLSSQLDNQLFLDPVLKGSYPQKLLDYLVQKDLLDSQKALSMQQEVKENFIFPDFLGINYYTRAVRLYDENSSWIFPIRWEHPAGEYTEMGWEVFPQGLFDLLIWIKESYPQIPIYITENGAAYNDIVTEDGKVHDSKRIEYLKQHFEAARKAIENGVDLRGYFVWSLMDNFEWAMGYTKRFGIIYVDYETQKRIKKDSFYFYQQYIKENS

laccase CotA = target: T2, laccase CotA (Heyndrickxia coagulans, UniProt A0AAN0WB15); assay: whole-cell absorbance assay at […] nm, surface-displaying P. putida; format: cell-based; conditions: 0.1 M Na-acetate pH 5.6; 30 °C; cells grown with CuCl2
T2 construct: gene SB48_HM08orf01352; N-terminal His6 tag and fXa site; codon-optimized gene
T2 sequence (A0AAN0WB15 1-522): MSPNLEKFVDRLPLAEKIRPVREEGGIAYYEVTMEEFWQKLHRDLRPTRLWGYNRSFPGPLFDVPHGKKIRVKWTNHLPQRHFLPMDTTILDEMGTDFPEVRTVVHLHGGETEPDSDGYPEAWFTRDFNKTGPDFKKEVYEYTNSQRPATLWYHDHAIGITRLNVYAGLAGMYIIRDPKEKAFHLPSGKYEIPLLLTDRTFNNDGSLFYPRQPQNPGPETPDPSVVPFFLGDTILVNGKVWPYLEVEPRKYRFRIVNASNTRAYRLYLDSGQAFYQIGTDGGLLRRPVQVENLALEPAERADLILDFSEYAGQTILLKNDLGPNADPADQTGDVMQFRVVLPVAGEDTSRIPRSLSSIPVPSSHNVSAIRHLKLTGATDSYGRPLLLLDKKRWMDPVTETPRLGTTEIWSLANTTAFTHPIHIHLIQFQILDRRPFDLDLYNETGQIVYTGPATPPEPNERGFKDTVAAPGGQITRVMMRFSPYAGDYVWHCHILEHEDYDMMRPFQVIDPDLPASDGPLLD

SMILES | whole-cell absorbance assay at 405 nm, surface-displaying E. coli [1] | whole-cell absorbance assay at 420 nm, surface-displaying P. putida (laccase CotA)
O=[N+]([O-])c1ccc(O[C@@H]2O[C@H](CO)[C@@H](O)[C@H](O)[C@H]2O)cc1 [4-nitrophenyl-β-D-glucopyranoside] | activity assay with 4-nitrophenyl-β-D-glucopyranoside (pNPG) as substrate | –
CCn1c(=NN=c2sc3cc(S(=O)(=O)O)ccc3n2CC)sc2cc(S(=O)(=O)O)ccc21 [ABTS, 2,2’-Azino-bis [3-ethylbenzothiazoline-6-sulfonic acid]-diammonium salt] | – | The substrate ABTS is converted by the laccase to ABTS^•+
